Results on one molecule are retold here after US8722682B2, “Sulfated benzimidazolone derivatives having mixed serotonin receptor affinity” (Sprout Pharmaceuticals, Inc., priority 2006, dated 2014).

The target in one assay is T1, 5-HT1A receptor (Homo sapiens, UniProt P08908).
T1 construct: expressed in transfected cells; host or cells: CHO-K1
T1 sequence (P08908 1-422): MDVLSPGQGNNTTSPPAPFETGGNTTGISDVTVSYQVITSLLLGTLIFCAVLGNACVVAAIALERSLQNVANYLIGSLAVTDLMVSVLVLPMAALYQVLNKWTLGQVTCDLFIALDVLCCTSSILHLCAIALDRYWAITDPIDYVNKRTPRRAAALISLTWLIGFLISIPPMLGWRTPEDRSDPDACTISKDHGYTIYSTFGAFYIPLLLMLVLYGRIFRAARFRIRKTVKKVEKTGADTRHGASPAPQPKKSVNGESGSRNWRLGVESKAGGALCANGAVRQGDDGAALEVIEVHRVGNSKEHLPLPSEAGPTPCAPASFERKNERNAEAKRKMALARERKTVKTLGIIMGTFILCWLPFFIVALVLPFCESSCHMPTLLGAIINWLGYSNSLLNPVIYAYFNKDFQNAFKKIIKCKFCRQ
The assay is described as follows: 5-HT1A receptor binding, [3H]-8-OH-DPAT displacement. The note with it: human recombinant CHO-K1 cells, [3H]-8-OH-DPAT 1.5 nM. On the procedure:
(§1) Binding studies can be carried out to determine the affinity of the compounds for 5-HT1A and 5-HT2A receptors
Human recombinant CHO-K1 cells are used. Displacement experiments can be performed by incubating the cells in 50 mM Tris-HCL, pH 7.4, 0.1% ascorbic acid, 0.5 mM EDTA, 10 mM MgSo4 and in the presence of [^3H]-8-OH-DPAT (1.5 nM) at 27° C. for 60 min. Non specific binding was determined in the presence of 10 μM mertergoline.
The test compounds dissolved in DMSO, along with the positive control compound metergoline are tested over 10-log unit concentrations for their ability to compete for [^3H]8-OH-DPAT binding (May J A, et al., J Pharmacol Exp Ther. 306(1):301, 2003. Martin G R and Humphrey P P A Neuropharmacol. 33:261, 1994). […] The radioactivity is counted on a β-counter, and the data are analyzed by a nonlinear, iterative, curve-fitting computer program.
Where presented, IC50 values are determined by a non-linear, least squares regression analysis using Data Analysis Toolboxä (MDL Information Systems, San Leandro, Calif., USA). Where inhibition constants (Ki) are presented, the Ki values are calculated using the equation of Cheng and Prusoff (Cheng, Y., Prusoff, W. H., Biochem. Pharmacol. 22:3099-3108, 1973) using the observed IC50 of the tested compound, the concentration of radioligand employed in the assay, and the historical values for the Ki of the ligand).

Another assay deals with T2, 5-HT2A receptor (Homo sapiens, UniProt P28223).
T2 construct: expressed in transfected cells; host or cells: CHO-K1
T2 sequence (P28223 whole entry): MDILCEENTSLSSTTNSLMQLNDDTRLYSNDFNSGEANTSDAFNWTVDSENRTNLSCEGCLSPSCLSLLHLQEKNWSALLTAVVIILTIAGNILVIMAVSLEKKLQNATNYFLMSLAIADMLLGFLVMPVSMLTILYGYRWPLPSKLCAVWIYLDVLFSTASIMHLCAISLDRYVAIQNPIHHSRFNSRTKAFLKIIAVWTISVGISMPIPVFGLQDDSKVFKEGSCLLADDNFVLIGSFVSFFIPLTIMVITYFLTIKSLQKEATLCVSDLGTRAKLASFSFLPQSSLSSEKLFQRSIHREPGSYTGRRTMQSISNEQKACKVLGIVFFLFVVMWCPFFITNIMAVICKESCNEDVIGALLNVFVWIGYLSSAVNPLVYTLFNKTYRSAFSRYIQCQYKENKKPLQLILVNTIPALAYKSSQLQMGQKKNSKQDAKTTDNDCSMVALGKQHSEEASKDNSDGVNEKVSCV
Put plainly: 5-HT2A receptor binding, [3H]-Ketanserin displacement. The note with it: human recombinant CHO-K1 cells, [3H]-Ketanserin 0.5 nM. As to the method: as §1
Human recombinant CHO-K1 cells can be used. Displacement experiments are performed by incubating the cells in 50 mM Tris-HCL, pH 7.7 in the presence of [^3H]-Ketanserin (0.5 nM) at 25° C. for 60 min. Non specific binding was determined in the presence of 1 μM Mianserin.
The test compounds, along with the positive control compound ketanserin are tested over 10-log unit concentrations for their ability to compete for [^3H]-Ketanserin (Saucier C and Albert P R. J. Neurochem. 68:1998, 1997. Bonhaus D W et al., Br J Pharmacol. 115:622, 1995). The assays are terminated by rapid vacuum filtration over glass fiber filters. The radioactivity is counted on a β-counter, and the data are analyzed by a nonlinear, iterative, curve-fitting computer program. Where presented, IC50 values are determined by a non-linear, least squares regression analysis using Data Analysis Toolboxä (MDL Information Systems, San Leandro, Calif., USA). Where inhibition constants (Ki) are presented, the Ki values are calculated using the equation of Cheng and Prusoff (Cheng, Y., Prusoff, W. H., Biochem. Pharmacol. 22:3099-3108, 1973) using the observed IC50 of the tested compound, the concentration of radioligand employed in the assay, and the historical values for the Ki of the ligand).

As to `O=c1[nH]c2ccc(OS(=O)(=O)O)cc2n1CCN1CCN(c2cccc(C(F)(F)F)c2)CC1` [I(b), {2-oxo-3-{2-[4-(3-trifluoromethyl-phenyl)-piperazin-1-yl]-ethyl}-2,3-dihydro-1H-benzimidazol-5-yl}mono sulfuric acid ester], the Ki on 5-HT1A receptor was 808 nM; on 5-HT2A receptor, 207 nM.
